Laboratory results taken from patent US20080058703A1, “Drug electrotransport with hydration measurement of hydratable reservoir” (priority 2006, published 2008).

Test: In vitro skin flux of apomorphine by electrotransport from hydrated TECOGEL matrix (horizontal diffusion cell)
Assay type: in vitro ADME
Settings: in vitro electrotransport from hydrated TECOGEL matrix across heat separated human epidermis
From the text: The diamond symbols show the average data points at particular time intervals and the vertical lines show the standard deviation. Measurement of impedance during hydration of TECOGEL® is reported in FIG. 8 and described in Example 3 below. The flux of apomorphine free base is plotted as a function of electrotransport time (in hrs). The unit for the flux is μg/cm^2 hr. […] It is noted that the TECOGEL® was used to illustrate that hydration can be done and the level of hydration measured. The exact type of polyurethane gel used is not critical as long a gel can be formed that can allow drug ions to migrate under an electrical potential.
The following methodology was used for the in vitro flux experiments for illustrative purposes:
Custom-built horizontal diffusion cells made in-house from DELRIN® polymeric material were used for the in vitro skin flux experiments and heat separated human epidermis was used. A consumable Ag electrode with the same polarity as the drug was adhered to one end of a DELRIN® material diffusion cell that functioned as the donor cell. […]
A Hanson Research MICROETTE™ collection system, interfaced to the experimental set up, collected the drug containing receptor solution from the reservoir underneath the skin directly into HPLC vials. […] The Hanson system collected samples to be analyzed by an HPLC to determine delivery efficiency of the drug in the formulation. […]

rise to steady state time: about 3 hours
steady state flux of apomorphine free base (37° C., until about 24 hours): about 32 μg/cm^2 hr
SMILES: CN1CCc2cccc3c2[C@H]1Cc1ccc(O)c(O)c1-3 [apomorphine]
